Assay results: US8476246B2, “Combination of a chemotherapeutic agent and an inhibitor of the TGF-beta system” (Antisense Pharma GmbH, priority 2009, dated 2013)
Entries after “also recorded” stand apart in the source; their conditions may differ. Read-outs that look alike come from different tables or passages of the source.

Key:
Hup-T3 cells = test: Proliferation/viability of Hup-T3 cells (EZ4U method); format: cell-based, human; details: gemcitabine 0.05 nM to 5 μM alone, 7 days, FIG. 2
Description: In a 96-well tissue culture plate 4000 cells/well of a human pancreatic tumor cell line Hup-T3 (German Collection of Microorganisms and Cell Cultures GmbH, Braunschweig, Germany) were seeded. The Hup-T3 cell line is not resistant to gemcitabine. One day after seeding, cells were co-treated with […] different gemcitabine concentrations, i.e., 5 μM, 2 μM, 800 nM, 320 nM, 128 nM, 51.2 nM, 20.5 nM, 8.2 nM, 3.3 nM and 0 nM gemcitabine, respectively, in combination with 0 μM (▪), 5 μM (Δ) or 10 μM (∇) TGF-beta 2 antisense oligonucleotide, for example SEQ ID No. 30, for 5 h. […]
The proliferation/viability of the Hup-T3 cells was analyzed using the EZ4U method according to the manufacturer's instructions (Biozol Diagnostca Vertrieb GmbH), and the OD was measured after an incubation time of 75 min with EZ4U solution using the plate reader “Fluostar-Optima” (BMG LABTECH GmbH). […]
The proliferation/viability of the Hup-T3 cells (▪) was analyzed using the EZ4U method according to the manufacturer's instructions (Biozol Diagnostca Vertrieb GmbH), and the OD was measured after an incubation time of 75 min with EZ4U solution using the plate reader “Fluostar-Optima” (BMG LABTECH GmbH).

TGF-beta 2 = TGF-beta 2 secretion of Hup-T3 cells (TGF-beta 2-ELISA of cell supernatants); format: cell-based, human
Description: After 7 days of total treatment, cell supernatants were removed and the TGF-beta 2 concentration was analyzed (see Example 4, and FIG. 4).
The effect of gemcitabine on TGF-beta 2 expression and secretion, respectively, was investigated on Hup-T3 cells. Gemcitabine was administered to the Hup-T3 cells in following concentrations: 5 μM, 0.5 μM, 50 nM, 5 nM, 0.5 nM, 0.05 nM or 0 nM, and the cells were incubated for 5 h according to Example 1. The treatment solution was optionally replaced after 3 days.
After 7 days of treatment, cell supernatants were removed for the analysis of TGF-beta 2 concentration. The TGF-beta 2 secretion (Δ) was quantified by a standard TGF-beta 2-ELISA Kit (R&D Systems, Minneapolis, USA) according to the manufacturer's instructions.
In a further experiment the effect of the TGF-beta 2 antisense oligonucleotide on the expression and secretion, respectively, of TGF-beta 2 was investigated on Hup-T3 cells. The TGF-beta 2 antisense oligonucleotide, for example SEQ ID No. 30, was administered to the Hup-T3 cells as described in Example 1 (0 μM, 1 μM, 2.5 μM, 5 μM, 10 μM, 20 μM, 40 μM, 60 μM, or 80 μM TGF-beta 2 antisense oligonucleotide). The cells were incubated according to Example 1 and after 7 days of treatment, the cell supernatants were removed for the analysis of TGF-beta 2 concentration using the TGF-beta 2-ELISA Kit of R&D Systems.
Hup-T3 cells were incubated with different concentrations of gemcitabine (2 μM, 800 nM, 320 nM, 128 nM, 51.2 nM, 20.5 nM, 8.2 nM, and 0 nM) and TGF-beta 2 antisense oligonucleotide according to Example 1 (0 μM (▪), 5 μM (Δ), or 10 μM (•) TGF-beta 2 antisense oligonucleotide) and the cell supernatants were removed after 7 days of treatment for the analysis of TGF-beta 2 concentration using the TGF-beta 2-ELISA Kit of R&D Systems.

[1] = tested on: gemcitabine-resistant human bladder cancer cells; details: cited from earlier work
MEL-Juso cells = test: Proliferation/viability of MEL-Juso cells (Cyquant method); format: cell-based, human; details: 10 μM TGF-beta 2 antisense oligonucleotide in comparison to 0 μM, FIG. 5
Description: In a 48-well tissue culture plate 10 000 cells/well of a human melanoma cell line MEL-Juso (CLS—Cell Lines Service, Eppelheim, Germany) were seeded. The MEL-Juso cell line is not resistant to temozolomide. Six hours after seeding, cells were co-treated with eight different temozolomid concentrations, i.e., 200 μM, 100 μM, 50 μM, 25 μM, 12.5 μM, 6.25 μM, 3.125 μM, and 0 μM temozolomide, respectively, in combination with 0 μM (▪), 5 μM (Δ) or 10 μM (∇) TGF-beta 2 antisense oligonucleotide, for example SEQ ID No. 30, for 2 days. Substances (temozolomide and TGF-beta 2 antisense oligonucleotide) were prepared in aqueous solution, stored at 4° C. and were used for 4 weeks. Thereafter the first treatment solution comprising temozolomidee and the TGF-beta 2 antisense oligonucleotide was removed and replaced by a second treatment solution containing the TGF-beta 2 antisense oligonucleotide and temozolomide in the above mentioned concentrations for further 2 days. […]
The proliferation/viability of the MEL-Juso cells was analyzed using the Cyquant method according to the manufacturer's instructions (Invitrogen), and the OD was measured after an incubation time of 60min with Cyquant solutions (detection reagent, direct nucleic acid stain, and direct nucleic acid background suppressor) using the plate reader “Fluostar-Optima” (BMG LABTECH GmbH).

A-172 cells = test: Cytotoxicity on A-172 cells (LDH release, CytoToxicity Detection Kit Plus); format: cell-based; details: combination of temozolomide (200 or 800 μM) and 10 μM antisense oligonucleotide, 5 d
Description: A-172 cells (about 7000 cells/well) were seeded into 48-well plates, and 6 h after seeding 0 μM, 200 μM, or 800 μM temozolomide either alone (grey column) or in combination with 10 μM of a TGF-beta 2 antisense oligonuclotide (black column), for example SEQ ID No. 30, was added to the cells. After 2 d of incubation, the treatment solutions were replaced and cells were incubated for additional 3 d (total treatment time: 5 d). […] The cells of the supernatant were lysed by addition of lysis solution for example from the CytoToxicity Detection Kit Plus (Roche Diagnostics GmbH) and the LDH levels were determined for example according to the manual of the kit.

Row | Compound | effect of gemcitabine on proliferation and viability (Hup-T3 cells) | effect of gemcitabine on TGF-beta 2 secretion (TGF-beta 2; gemcitabine 0.05 nM to 5 μM, 7 days, FIG. 2) | effect of gemcitabine on the suppression of TGF-beta 2 secretion by TGF-beta 2 antisense oligonucleotide (TGF-beta 2; gemcitabine 8.2 nM to 2 μM with 5 or 10 μM antisense oligonucleotide, FIG. 4) | IC50 ([1]; gemcitabine-resistant cells chemosensitized with sCLU-2 antisense oligonucleotide) | IC50 ([1]; gemcitabine-resistant cells, before sCLU-2 antisense oligonucleotide) | effect on TGF-beta 2 secretion in the presence of gemcitabine (TGF-beta 2; 0, 5 or 10 μM antisense oligonucleotide, gemcitabine 8.2 nM to 2 μM, FIG. 4) | effect on TGF-beta 2 secretion (TGF-beta 2; antisense oligonucleotide 1 to 80 μM, no gemcitabine, 7 days, FIG. 3) | reduction of the IC50 of temozolomide (cytotoxicity) (MEL-Juso cells) | amount of released LDH (A-172 cells)
1 | Nc1ccn([C@@H]2O[C@H](CO)[C@@H](O)C2(F)F)c(=O)n1 [gemcitabine] | has a cytotoxic effect; also recorded: decreases at higher gemcitabine concentrations | does not specifically influence the TGF-beta 2 secretion; also recorded: no specific influence | does not impair the suppression of TGF-beta 2 secretion; also recorded: does not affect the inhibitory effect of the antisense oligonucleotide on its target | 10 nM | 100 nM | – | – | – | –
2 | CGGCATGTCTATTTTGTA (listed as DNA, chemistry not given here) [TGF-beta 2 antisense oligonucleotide] | – | – | – | – | – | inhibited TGF-beta 2 secretion in a dose dependent manner | inhibited the TGF-beta 2 expression and secretion, respectively, in a dose dependent manner; also recorded: dose dependent inhibitory effect | about 2 × | significantly increased
